Reference: ChEMBL document CHEMBL3576800, “Discovery of a Potent and Orally Bioavailable Dual Antagonist of CC Chemokine Receptors 2 and 5” (ACS Med Chem Lett, 2015)

Legend:
[1] = system: Liver microsome; settings: rat, microsomes
Description: Drug metabolism in rat liver microsomes

[2] = species: Mus musculus; settings: in vivo, po, 10 mg/kg, 4 h
[3] = AUC in Sprague-Dawley rat at 25 mg/kg, po after 0.25 to 24 hrs by LC/MS/MS method; type: ADME, organism-based; parameters: time upper 24 hr, dose 25 mg/kg, time lower 0.25 hr, route oral; settings: in vivo
[4] = Clearance in cynomolgus monkey at 1 mg/kg, iv after 0.25 to 24 hrs by LC/MS/MS method; type: ADME, organism-based, Macaca fascicularis; settings: in vivo
[5] = Oral bioavailability in cynomolgus monkey at 1.4 mg/kg after 0.25 to 24 hrs by LC/MS/MS method; type: ADME, organism-based, Macaca fascicularis; settings: in vivo
[6] = Clearance in Sprague-Dawley rat at 2.5 mg/kg, iv after 0.25 to 24 hrs by LC/MS/MS method; type: ADME, organism-based; settings: in vivo
[7] = AUC in cynomolgus monkey at 1.4 mg/kg, po after 0.25 to 24 hrs by LC/MS/MS method; type: ADME, organism-based, Macaca fascicularis; parameters: time 0.25-24 hr, dose 1.4 mg/kg, route oral; settings: in vivo
[8] = Oral bioavailability in Sprague-Dawley rat at 25 mg/kg after 0.25 to 24 hrs by LC/MS/MS method; type: ADME, organism-based; settings: in vivo

Structure (SMILES) | Drug metabolism [1] | AUC/dose [2] | further results
CC(C)N(C)[C@@H]1CC[C@H](NC(=O)CNC(=O)c2cccc(C(F)(F)F)c2)[C@H](CS(=O)(=O)c2ccccc2)C1 | 0.16 nmol/min/mg | 1.1 µM·h | 
COC[C@@H]1C[C@H](N(C)C(C)C)CC[C@@H]1NC(=O)CNC(=O)c1cccc(C(F)(F)F)c1 | 0.01 nmol/min/mg |  | 
CCCC[C@@H]1C[C@H](N(C)C(C)C)CC[C@@H]1NC(=O)CNC(=O)c1cccc(C(F)(F)F)c1 | 0.17 nmol/min/mg |  | 
CC(C)N(C)[C@@H]1CC[C@H](NC(=O)CNC(=O)c2cccc(C(F)(F)F)c2)[C@H](COc2ccccc2)C1 | 0.29 nmol/min/mg |  | 
CCC[C@@H]1C[C@H](N(C)C(C)C)CC[C@@H]1N1CC[C@H](Nc2ncnc3ccc(C(F)(F)F)cc23)C1=O |  | 22 µM·h | AUC [3]: 9.29 µM·h; clearance [4]: 25 mL/min/kg; bioavailability [5]: 46%; clearance [6]: 40 mL/min/kg; AUC [7]: 0.862 µM·h; bioavailability [8]: 68%
